From ChEMBL document CHEMBL1806351, “Synthesis of C-1 homologues of pancratistatin and their preliminary biological evaluation” (Bioorg Med Chem Lett, 2011)
Each block holds one molecule with its values, some of them ahead of it.

Tests used:
Format in all cases: functional, cell-based
BXPC-3 = experiment: Antiproliferative activity against human BxPC3 cells assessed as viable cells after 48 hrs by MTT assay; settings: BXPC-3, 48 h
MCF7 = experiment: Antiproliferative activity against human MCF7 cells assessed as viable cells after 48 hrs by MTT assay; settings: MCF7, 48 h
DU-145 = experiment: Antiproliferative activity against human DU145 cells assessed as viable cells after 48 hrs by MTT assay; settings: DU-145, 48 h
NCI-H460 = experiment: Antiproliferative activity against human NCI-H460 cells assessed as viable cells after 48 hrs by MTT assay; settings: NCI-H460, 48 h

Structure (SMILES): O=C1N[C@H]2[C@H](O)[C@H](O)[C@@H](O)[C@H](CO)[C@@H]2c2cc3c(cc21)OCO3
IC50 (BXPC-3): 770 nM
IC50 (MCF7): 860 nM
IC50 (DU-145): 1100 nM
IC50 (NCI-H460): 400 nM

Structure (SMILES): O=C1N[C@H]2[C@H](O)[C@H](O)[C@@H](O)[C@H](CO)[C@@H]2c2cc3c(c(O)c21)OCO3
IC50 (BXPC-3): 220 nM
IC50 (MCF7): 240 nM
IC50 (DU-145): 90 nM
IC50 (NCI-H460): 90 nM

Structure (SMILES): O=C1N[C@@H]2C(=C[C@H](O)[C@@H](O)[C@H]2O)c2cc3c(c(O)c21)OCO3 [NARCICLASINE]
IC50 (BXPC-3): 50 nM
IC50 (MCF7): 40 nM
IC50 (DU-145): 50 nM
IC50 (NCI-H460): 40 nM

Results, then the molecule that gave them:

IC50 (BXPC-3): 340 nM
IC50 (MCF7): 1810 nM
IC50 (DU-145): 720 nM
IC50 (NCI-H460): 530 nM
Structure (SMILES): CC(=O)OC[C@H]1[C@H](O)[C@@H](O)[C@@H](O)[C@@H]2NC(=O)c3cc4c(cc3[C@@H]12)OCO4

IC50 (BXPC-3): 70 nM
IC50 (MCF7): 520 nM
IC50 (DU-145): 60 nM
IC50 (NCI-H460): 70 nM
Structure (SMILES): CC(=O)OC[C@H]1[C@H](O)[C@@H](O)[C@@H](O)[C@@H]2NC(=O)c3c(cc4c(c3O)OCO4)[C@@H]12
